The subject of test [1] is human 1299 cells (NCI-H1299) cultured within rat decellularized biomatrices. In words: Cisplatin treatment of tissue constructs: tumor size and live cells. The format is cell-based. The note with it: 50 μM Cisplatin from day 4 of culture. On the procedure:
A simplified, small, closed-system bioreactor was set up in an incubator for lung cell culture on the lung biomatrix (FIG. 1B). A custom-designed 500-mL glass bottle was used with three holes in the cap fitted with a female Luer thread-style panel (Cole-Parmer), one for the pulmonary artery cannula, one for the trachea cannula, and one for circulation of medium from the bottle. Medium was constantly circulated with the help of a Masterflex pump (Cole-Parmer) through a 10-foot length of silicone oxygenator tubing wrapped around a mesh of wire solenoid (Cole-Parmer). The medium was perfused through the pulmonary artery cannula into lungs at a flow rate of 6 mL/min. For controlled flow through the pulmonary artery, it was connected to a three-way stopcock (Smith Medical, Dublin, Ohio). The bottle was filled with 150 mL of complete medium or serum-free medium, which was circulated through the oxygenator tubing to prevent air bubbles. […] Treatment (Tx) with 50 μM Cisplatin was commenced at day 4 of culture, and treated tissue constructs and untreated controls were assessed and compared at days 4, 8, 11, and 14 of culture (FIGS. 11 and 12). […]

Test [2] has the same test system. Put plainly: Ki-67 and TUNEL staining of treated and untreated lung tissue constructs. In kind it is cell-based. Conditions: 50 μM Cisplatin from day 4 of culture; compared with untreated constructs (FIG. 14). The source says: Lobes of same lungs were dissected at day 0 (day of seeding cancer cells onto biomatrix), day 3, day 7, and day 11 or day 14 (or both) in sterile conditions under the culture hood to see the progression of tumor growth. After lobectomy, lung tissues were placed in 70% ethanol and analyzed in the Pathology Core Laboratory at The Methodist Hospital Research Institute. Briefly, the tissues were fixed in 10% formalin overnight, processed, and embedded in paraffin. Embedded tissues were cut into […] slices and mounted on slides, and the paraffin was removed; antigen retrieval was performed with antigen unmasking solution (H-3300; Vector Laboratories, Burlingame, Calif.) in a steamer for 20 minutes. Slides were cooled for 20 minutes at room temperature, washed in PBS, and stained with hematoxylin and eosin, Movat Pentachrome (American MasterTech Scientific, Lodi, Calif.), elastin (VVG kit, Ventana Nexus, Tucson, Ariz.), and other markers following the standard protocol. Stained slides were examined by expert board-certified pathologists, and images were captured using a microscope (Olympus, Center Valley, Pa.). […] Treatment (Tx) with 50 μM Cisplatin was commenced at day 4 of culture, and treated tissue constructs and untreated controls were assessed and compared at days 4, 8, 11, and 14 of culture (FIGS. 11 and 12). […]

Test [3] shares this test system. In words: Circulating cells in perfusion fluid of treated and untreated lung tissue constructs. In kind it is cell-based. Conditions: 50 μM Cisplatin from day 4 of culture, over the observed time period, untreated showed steady increase (FIG. 15). On the procedure:
In some embodiments, the analyzing comprises determining the number of cells in the perfusion fluid used to perfuse a tissue construct as described herein. The number of cells in the perfusion fluid, also referred to as the number of circulating cells herein, can be used as an indicator for the metastatic properties of neoplastic cells cultured within the tissue construct. For example, in tissue constructs in which neoplastic cells are cultured within the interstitial space, and perfusion fluid is run through the vascular space, cells found in the perfusion fluid may stem from neoplastic cells that have migrated across the basement membrane separating the interstitial and the vascular space. Since the capability to migrate across the basement membrane and, thus, to enter into the blood stream, is a hallmark feature of metastasizing cancer cells, the ability to migrate across the basement membrane in a tissue construct is a biomarker useful for assessing metastatic capabilities of cells grown in tissue constructs provided herein. […] Treatment (Tx) with 50 μM Cisplatin was commenced at day 4 of culture, and treated tissue constructs and untreated controls were assessed and compared at days 4, 8, 11, and 14 of culture (FIGS. 11 and 12). […]

Test [4] deals with MMPs 1, 2, 7, 9, and 10. In words: MMP secretion into perfusion fluid of treated and untreated lung tissue constructs. The format is cell-based, human. Conditions: 50 μM Cisplatin from day 4 of culture. The source says:
In some embodiments, the analyzing comprises an assessment of one or more molecules secreted into a perfusion fluid by the cells cultured within the tissue construct. For example, in a lung tissue construct, the analyzing may comprise detecting a protein, peptide, or nucleic acid in a perfusion fluid run through the pulmonary artery. In some embodiments, the secreted factor assessed is a secreted factor associated with cancer, or with a property of neoplastic cells, for example, with the metastatic capabilities of neoplastic cells. Secreted factors associated with cancer are known to those of skill in the art and include factors that are typically secreted by a tumor, such as growth factors and pro-angiogenic factors, as are factors associated with the metastatic capabilities of neoplastic cells. Metastasis-associated factors include, for example, matrix metalloproteases (MMPs, e.g., MMP-1, MMP-2, MMP-3, MMP-9, and MMP-10, as well as other MMPs). Tissue constructs were generated by culturing human 1299 cells, also known as NCI-H1299 or CRL-5803, a human non-small cell lung carcinoma cell line, within rat decellularized biomatrices. Treatment (Tx) with 50 μM Cisplatin was commenced at day 4 of culture, and treated tissue constructs and untreated controls were assessed and compared at days 4, 8, 11, and 14 of culture (FIGS. 11 and 12). […]

For the molecule `N.N.[Cl][Pt][Cl]` [Cisplatin], in test [1] (compared with non-treated constructs (FIG. 13)), the “percentage of live cells” value is listed as “dramatically decreased”. Also, the Tumor size entry in test [1] (compared with untreated constructs, days 4, 8, 11, 14 (FIG. 13)) was “dramatically decreased”. In test [2], the Ki-67 expression result is recorded as “decreased in treated constructs” and the TUNEL staining entry was “widespread apoptotic processes”. Besides, the “number of circulating cells” value in test [3] is “gradual decrease over the observed time period after initial rapid release of the circulating cells”. Also, the “Levels of the assessed MMPs at the end of the observation period” value in test [4] (end of the observation period (FIG. 16)) was “no detectable levels”. The “Levels of MMPs 1, 2, 7, 9, and 10 in perfusion fluid after start of treatment” value in test [4] (untreated gradually increased over time (FIG. 16)) is “levels of all MMPs were diminished”.
